Results on three substances are retold here after US8987193B2, “Nisin derivatives and the use thereof” (University College Cork—National University of Ireland, Cork, priority 2008, dated 2015).

Ends that are not written are not given here.

Common to all, as to assay: Deferred antagonism assay
For one assay, the system named is Staph. aureus DPC5245. The format is cell-based. Particulars: producing strain; diameter of zone minus 5 mm; average of duplicates; St. aureus DPC5245. A digest of the protocol: (§1)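 Producer strains replicated on GM17 agar, grown overnight, then overlaid with soft agar (0.75% w/v) seeded with indicator strain. Zone size = clearing diameter minus 5 mm growth diameter, relative to NZ9800 pCI372nisA control; mean of duplicates.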

The subject of assay [1] is Staph. aureus ST528 (MRSA). The format is cell-based. The note with it: producing strain, diameter of zone minus diameter of bacterial growth (5 mm), average of duplicates. A digest of the protocol:
as §1

The test system of assay [2] is Strep. agalactiae ATCC13813. The assay is classed as cell-based. Particulars: producing strain, diameter of zone minus 5 mm, average of duplicates.
For a further assay, the system named is C. sporogenes CBC5. The format is cell-based, Clostridium sporogenes. Particulars: producing strain. Also on record: key: + = Enhanced bioactivity relative to control; − = Bioactivity equal to or less than control; NA = no activity evident.
The subject of a further assay is L. plantarum CBC6. The assay is classed as cell-based, Lactobacillus plantarum. The note with it: producing strain. Also on record: key: + = Enhanced bioactivity relative to control; − = Bioactivity equal to or less than control; NA = no activity evident. In outline:
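Producer strains replicated on GM17 or GM17 x-gal agar, grown overnight, then overlaid with 0.75% agar seeded with indicator strain. Zone size = diameter of clearing minus 5 mm growth diameter. Purified nisins tested by well diffusion at 37° C overnight; activity in AU/ml from reciprocal of highest active dilution × 20.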

The subject of the next assay is Listeria innocua FH2117. The assay is classed as cell-based. Particulars: nisin strain. As for the experimental part:
(§2) Deferred antagonism assays were performed by replicating strains on GM17 or GM17 x-gal agar plates and allowing them to grow overnight before overlaying with either GM17/BHI/TS/MH agar (0.75% w/v agar) seeded with the appropriate indicator strain. Zone size was calculated as the diameter of the zone of clearing minus the diameter of bacterial growth (5 mm) For higher throughput screening of N20PXX, XM21VX, XXK22T and XXX banks deferred antagonism assays were performed by replicating strains using a 96 pin replicator (Boekel) or spotting 5 μl of a fresh overnight culture on GM17 agar plates and allowing them to grow overnight. […] Additional sets of indicators were employed to further assess/reassess the bioactivity of a number of strains. […] For well-diffusion assays molten agar was cooled to 48° C. and seeded with the appropriate indicator strain. The inoculated medium was rapidly transferred into sterile Petri plates in 50 ml volumes, allowed to solidify and dried. Wells (4.6 mm in diameter) were then made in the seeded plates. Purified nisin and mutant nisins were resuspended in 0.005% acetic acid, serially diluted, 50 μl volumes were dispensed into the aforementioned wells and the plates incubated at 37° C. overnight. Bioactivity was expressed as arbitrary units/ml (AU/ml) and calculated as the reciprocal of the highest dilution that gave a definite zone multiplied by the conversion factor (i.e. 20 when 50 μl was used) (Ryan et al., 1996).

Assay [3] relates to Listeria monocytogenes 33007. The assay is classed as cell-based. Particulars: nisin strain; L. monocytogenes 33007. As for the experimental part:
as §2

Assay [4] has as its system Listeria monocytogenes 33013. The assay is classed as cell-based. Particulars: nisin strain; L. monocytogenes 33013. As for the experimental part:
as §2

The test system of assay [5] is Listeria monocytogenes 33037. The format is cell-based. The note with it: nisin strain; L. monocytogenes 33037. As for the experimental part:
as §2

The subject of assay [6] is Listeria monocytogenes 33077. The assay is classed as cell-based. The note with it: nisin strain; L. monocytogenes 33077. As for the experimental part: as §2
Assay [7] relates to Listeria monocytogenes 33090. The format is cell-based. The note with it: nisin strain; L. monocytogenes 33090. As for the experimental part: as §2
The subject of assay [8] is Listeria monocytogenes 33116. The assay is classed as cell-based. The note with it: nisin strain; L. monocytogenes 33116. As for the experimental part: as §2
Assay [9] has as its system Listeria monocytogenes 33176. The format is cell-based. The note with it: nisin strain; L. monocytogenes 33176. As for the experimental part: as §2
For assay [10], the system named is Listeria monocytogenes 33186. The format is cell-based. The note with it: nisin strain; L. monocytogenes 33186. As for the experimental part: as §2
In assay [11] the test system is Listeria monocytogenes 33225. The format is cell-based. The note with it: nisin strain; L. monocytogenes 33225. As for the experimental part: as §2
The subject of assay [12] is Listeria monocytogenes 33411. The assay is classed as cell-based. Particulars: nisin strain; L. monocytogenes 33411. As for the experimental part:
as §2

Assay [13] concerns Listeria monocytogenes 33423. The assay is classed as cell-based. Particulars: nisin strain; L. monocytogenes 33423. As for the experimental part:
as §2

Assay [14] deals with Listeria monocytogenes CD1038. The assay is classed as cell-based. Particulars: nisin strain; L. monocytogenes CD1038. As for the experimental part:
as §2

Assay [15] deals with Listeria monocytogenes CD83. The assay is classed as cell-based. The note with it: nisin strain; L. monocytogenes CD83. As for the experimental part: as §2
The test system of assay [16] is Listeria monocytogenes F2365. The format is cell-based. Particulars: nisin strain; L. monocytogenes F2365. As for the experimental part:
as §2

For assay [17], the system named is Listeria monocytogenes LO28. The assay is classed as cell-based. Particulars: nisin strain; L. monocytogenes LO28. As for the experimental part:
as §2

The test system of assay [18] is Listeria monocytogenes NRRLB 33038. The format is cell-based. Particulars: nisin strain; L. monocytogenes NRRLB 33038. As for the experimental part: as §2
Assay [19] deals with Listeria monocytogenes SLCC 4949. The format is cell-based. The note with it: nisin strain; L. monocytogenes SLCC 4949. As for the experimental part: as §2
For assay [20], the system named is Listeria monocytogenes SLCC 6793. The assay is classed as cell-based. Particulars: nisin strain; L. monocytogenes SLCC 6793. As for the experimental part:
as §2

In the case of “NisinA K22A (ITSISLCTPGCKTGALMGCNMATATCHCSIHVSK; not fully specified; also: lantibiotic: lanthionine rings and dehydro residues not placed; UniProt P13068 24-57, looked up, variant K22A) [nisin A derivative, hinge substitution K22A]”, the entries for the “zone size relative to that of the NZ9800 pCI372nisA control” value (“zone size relative to that” below) (in the assay with Staph. aureus DPC5245; in assay [1]; in assay [2]) were 117%, 126% and 137%, respectively. Also, the “Bioactivity relative to control” value with C. sporogenes CBC5 and in the assay with L. plantarum CBC6 was “−” each time. The “Activity score (zone)” value with Listeria innocua FH2117 was “+ (+, 1-5 mm zone)”; in assay [3] it was “+ (+, 1-5 mm zone)”; in [4], “+ (+, 1-5 mm zone)”; in assay [5], “+ (+, 1-5 mm zone)”; in [6], “+ (+, 1-5 mm zone)”; in assay [7] it was “+ (+, 1-5 mm zone)”. The “Activity score (zone)” value in assay [8] is listed as “+ (+, 1-5 mm zone)”; in assay [9], “+ (+, 1-5 mm zone)”; in assay [10], “+ (+, 1-5 mm zone)”; in assay [11], “+ (+, 1-5 mm zone)”; in [12], “+ (+, 1-5 mm zone)”; in [13] it was “+ (+, 1-5 mm zone)”. For the same substance, the “Activity score (zone)” value in assay [14] was “+ (+, 1-5 mm zone)”; in [15] it was “+ (+, 1-5 mm zone)”; in [16], “+ (+, 1-5 mm zone)”; in [17], “+ (+, 1-5 mm zone)”; in [18], “+ (+, 1-5 mm zone)”; in [19] it was “+ (+, 1-5 mm zone)”. In assay [20], the “Activity score (zone)” value is listed as “++ (++, 6-10 mm zone)”.

As for “NisinA M21G (ITSISLCTPGCKTGALMGCNGKTATCHCSIHVSK; not fully specified; also: lantibiotic: lanthionine rings and dehydro residues not placed; UniProt P13068 24-57, looked up, variant M21G) [nisin A derivative, hinge substitution M21G]”, the “zone size relative to that” value with Staph. aureus DPC5245 stood at 123%; in assay [1], 125%; in assay [2], 115%. In addition, the “Bioactivity relative to control” value in the assay with C. sporogenes CBC5 is given as “+”; in the assay on L. plantarum CBC6, “−”. Moreover, the “Activity score (zone)” value with Listeria innocua FH2117 is on record as “+ (+, 1-5 mm zone)”; in [3], “+ (+, 1-5 mm zone)”; in assay [4] it was “+ (+, 1-5 mm zone)”; in assay [5], “+ (+, 1-5 mm zone)”; in [6], “+ (+, 1-5 mm zone)”; in assay [7], “+ (+, 1-5 mm zone)”. Also, the “Activity score (zone)” value in assay [8] is “+ (+, 1-5 mm zone)”; in assay [9] it was “+ (+, 1-5 mm zone)”; in assay [10] it was “+ (+, 1-5 mm zone)”; in [11], “+ (+, 1-5 mm zone)”; in [12] it was “+ (+, 1-5 mm zone)”; in assay [13], “+ (+, 1-5 mm zone)”. Also, the “Activity score (zone)” value in assay [14] is reported as “+ (+, 1-5 mm zone)”; in assay [15] it was “+ (+, 1-5 mm zone)”; in [16], “+ (+, 1-5 mm zone)”; in assay [17] it was “+ (+, 1-5 mm zone)”; in assay [18], “+ (+, 1-5 mm zone)”; in assay [19], “+ (+, 1-5 mm zone)”. Moreover, the “Activity score (zone)” value in [20] is “++ (++, 6-10 mm zone)”.

On to “NisinA M21I (ITSISLCTPGCKTGALMGCNIKTATCHCSIHVSK; not fully specified; also: lantibiotic: lanthionine rings and dehydro residues not placed; UniProt P13068 24-57, looked up, variant M21I) [nisin A derivative, hinge substitution M21I]”, for which the figures for the “zone size relative to that” value (with Staph. aureus DPC5245; in assay [1]; in assay [2]) were 115%, 107% and 92%, respectively. Moreover, the entries for the “Bioactivity relative to control” value in the assay with C. sporogenes CBC5 and with L. plantarum CBC6 were “+” and “−”, respectively. Also, the “Activity score (zone)” value with Listeria innocua FH2117 was “+ (+, 1-5 mm zone)”; in assay [3] it was “++ (++, 6-10 mm zone)”; in assay [4], “+ (+, 1-5 mm zone)”; in [5], “++ (++, 6-10 mm zone)”; in assay [6] it was “+ (+, 1-5 mm zone)”; in assay [7], “+ (+, 1-5 mm zone)”. Besides, the “Activity score (zone)” value in assay [8] was “++ (++, 6-10 mm zone)”; in assay [9] it was “+ (+, 1-5 mm zone)”; in [10] it was “+ (+, 1-5 mm zone)”; in assay [11] it was “+ (+, 1-5 mm zone)”; in assay [12], “+ (+, 1-5 mm zone)”; in assay [13] it was “+ (+, 1-5 mm zone)”. The “Activity score (zone)” value is on record as “++ (++, 6-10 mm zone)” in assay [14]; “+ (+, 1-5 mm zone)” in [15]; “+ (+, 1-5 mm zone)” in assay [16]; “++ (++, 6-10 mm zone)” in assay [17]; “+ (+, 1-5 mm zone)” in assay [18]; “+ (+, 1-5 mm zone)” in assay [19]. In addition, the “Activity score (zone)” value in [20] is “+++ (+++, <10 mm zone)”.
